Measurements from BigSolDB 2.1.

O=c1nc[nH]c2[nH]ncc12
Details | solubility (mole fraction)
in 1,4-dioxane, 283.15 K | 2.91e-05
in 1,4-dioxane, 288.15 K | 3.71e-05
in 1,4-dioxane, 293.15 K | 4.64e-05
in 1,4-dioxane, 298.15 K | 5.74e-05
in 1,4-dioxane, 303.15 K | 7.03e-05
in 1,4-dioxane, 308.15 K | 8.43e-05
in 1,4-dioxane, 313.15 K | 0.000102
in 1,4-dioxane, 318.15 K | 0.000123
in 1,4-dioxane, 323.15 K | 0.000148
in 1,4-dioxane, 328.15 K | 0.000178
in 1,4-dioxane, 333.15 K | 0.000204
in 2-butanone, 278.15 K | 0.000783
in 2-butanone, 283.15 K | 0.000954
in 2-butanone, 288.15 K | 0.00115
in 2-butanone, 293.15 K | 0.00138
in 2-butanone, 298.15 K | 0.00165
in 2-butanone, 303.15 K | 0.00196
in 2-butanone, 308.15 K | 0.00231
in 2-butanone, 313.15 K | 0.00271
in 2-butanone, 318.15 K | 0.00316
in 2-butanone, 323.15 K | 0.00367
in 2-butanone, 328.15 K | 0.00425
in 2-butanone, 333.15 K | 0.00491
in DMF, 278.15 K | 0.00223
in DMF, 283.15 K | 0.00266
in DMF, 288.15 K | 0.00316
in DMF, 293.15 K | 0.00373
in DMF, 298.15 K | 0.00437
in DMF, 303.15 K | 0.00509
in DMF, 308.15 K | 0.00591
in DMF, 313.15 K | 0.00683
in DMF, 318.15 K | 0.00785
in DMF, 323.15 K | 0.00898
in DMF, 328.15 K | 0.01
in DMF, 333.15 K | 0.0121
in NMP, 278.15 K | 0.0151
in NMP, 283.15 K | 0.017
in NMP, 288.15 K | 0.02
in NMP, 293.15 K | 0.022
in NMP, 298.15 K | 0.0251
in NMP, 303.15 K | 0.0281
in NMP, 308.15 K | 0.032
in NMP, 313.15 K | 0.035
in NMP, 318.15 K | 0.0391
in NMP, 323.15 K | 0.0431
in NMP, 328.15 K | 0.0481
in NMP, 333.15 K | 0.0531
in acetone, 278.15 K | 0.000653
in acetone, 283.15 K | 0.000797
in acetone, 288.15 K | 0.000966
in acetone, 293.15 K | 0.00116
in acetone, 298.15 K | 0.00139
in acetone, 303.15 K | 0.00166
in acetone, 308.15 K | 0.00196
in acetone, 313.15 K | 0.00231
in acetone, 318.15 K | 0.0027
in acetone, 323.15 K | 0.00314
in acetone, 328.15 K | 0.00365
in acetone, 333.15 K | 0.00421
in acetonitrile, 278.15 K | 9.6e-05
in acetonitrile, 283.15 K | 0.000117
in acetonitrile, 288.15 K | 0.000141
in acetonitrile, 293.15 K | 0.00017
in acetonitrile, 298.15 K | 0.000204
in acetonitrile, 303.15 K | 0.000239
in acetonitrile, 308.15 K | 0.000286
in acetonitrile, 313.15 K | 0.000331
in acetonitrile, 318.15 K | 0.000384
in acetonitrile, 323.15 K | 0.000448
in acetonitrile, 328.15 K | 0.000522
in acetonitrile, 333.15 K | 0.00059
in cyclohexane, 283.15 K | 4.74e-07
in cyclohexane, 288.15 K | 6.38e-07
in cyclohexane, 293.15 K | 7.68e-07
in cyclohexane, 298.15 K | 1.02e-06
in cyclohexane, 303.15 K | 1.24e-06
in cyclohexane, 308.15 K | 1.61e-06
in cyclohexane, 313.15 K | 1.97e-06
in cyclohexane, 318.15 K | 2.48e-06
in cyclohexane, 323.15 K | 3.05e-06
in cyclohexane, 328.15 K | 3.77e-06
in cyclohexane, 333.15 K | 4.37e-06
in ethanol, 278.15 K | 2.46e-05
in ethanol, 283.15 K | 3.28e-05
in ethanol, 288.15 K | 4.27e-05
in ethanol, 293.15 K | 5.5e-05
in ethanol, 298.15 K | 6.99e-05
in ethanol, 303.15 K | 8.97e-05
in ethanol, 308.15 K | 0.000109
in ethanol, 313.15 K | 0.000139
in ethanol, 318.15 K | 0.000172
in ethanol, 323.15 K | 0.000211
in ethanol, 328.15 K | 0.000258
in ethanol, 333.15 K | 0.00031
in isopropanol, 278.15 K | 3.64e-05
in isopropanol, 283.15 K | 4.68e-05
in isopropanol, 288.15 K | 5.84e-05
in isopropanol, 293.15 K | 7.35e-05
in isopropanol, 298.15 K | 9.2e-05
in isopropanol, 303.15 K | 0.000112
in isopropanol, 308.15 K | 0.000138
in isopropanol, 313.15 K | 0.000171
in isopropanol, 318.15 K | 0.000204
in isopropanol, 323.15 K | 0.000245
in isopropanol, 328.15 K | 0.000296
in isopropanol, 333.15 K | 0.000346
in methanol, 278.15 K | 2.05e-05
in methanol, 283.15 K | 2.7e-05
in methanol, 288.15 K | 3.61e-05
in methanol, 293.15 K | 4.65e-05
in methanol, 298.15 K | 5.97e-05
in methanol, 303.15 K | 7.6e-05
in methanol, 308.15 K | 9.62e-05
in methanol, 313.15 K | 0.00012
in methanol, 318.15 K | 0.000152
in methanol, 323.15 K | 0.000189
in methanol, 328.15 K | 0.000235
in methanol, 333.15 K | 0.000283
in n-butanol, 278.15 K | 6.63e-05
in n-butanol, 283.15 K | 8.13e-05
in n-butanol, 288.15 K | 0.0001
in n-butanol, 293.15 K | 0.000124
in n-butanol, 298.15 K | 0.000151
in n-butanol, 303.15 K | 0.000184
in n-butanol, 308.15 K | 0.000219
in n-butanol, 313.15 K | 0.00026
in n-butanol, 318.15 K | 0.000312
in n-butanol, 323.15 K | 0.000366
in n-butanol, 328.15 K | 0.000429
in n-butanol, 333.15 K | 0.000496
in n-heptanol, 278.15 K | 0.000127
in n-heptanol, 283.15 K | 0.000149
in n-heptanol, 288.15 K | 0.000175
in n-heptanol, 293.15 K | 0.000205
in n-heptanol, 298.15 K | 0.000239
in n-heptanol, 303.15 K | 0.000276
in n-heptanol, 308.15 K | 0.000318
in n-heptanol, 313.15 K | 0.000365
in n-heptanol, 318.15 K | 0.000418
in n-heptanol, 323.15 K | 0.000473
in n-heptanol, 328.15 K | 0.000544
in n-heptanol, 333.15 K | 0.000614
in n-hexanol, 278.15 K | 8.05e-05
in n-hexanol, 283.15 K | 9.84e-05
in n-hexanol, 288.15 K | 0.000119
in n-hexanol, 293.15 K | 0.000145
in n-hexanol, 298.15 K | 0.000177
in n-hexanol, 303.15 K | 0.000214
in n-hexanol, 308.15 K | 0.000259
in n-hexanol, 313.15 K | 0.000302
in n-hexanol, 318.15 K | 0.00036
in n-hexanol, 323.15 K | 0.00042
in n-hexanol, 328.15 K | 0.000499
in n-hexanol, 333.15 K | 0.000566
in n-propanol, 278.15 K | 4.85e-05
in n-propanol, 283.15 K | 6.16e-05
in n-propanol, 288.15 K | 7.66e-05
in n-propanol, 293.15 K | 9.52e-05
in n-propanol, 298.15 K | 0.000114
in n-propanol, 303.15 K | 0.00014
in n-propanol, 308.15 K | 0.000164
in n-propanol, 313.15 K | 0.000201
in n-propanol, 318.15 K | 0.000247
in n-propanol, 323.15 K | 0.000293
in n-propanol, 328.15 K | 0.000349
in n-propanol, 333.15 K | 0.000403
in water, 278.15 K | 8.71e-06
in water, 283.15 K | 1.18e-05
in water, 288.15 K | 1.57e-05
in water, 293.15 K | 2.12e-05
in water, 298.15 K | 2.94e-05
in water, 303.15 K | 3.83e-05
in water, 308.15 K | 5.01e-05
in water, 313.15 K | 6.44e-05
in water, 318.15 K | 8.32e-05
in water, 323.15 K | 0.000107
in water, 328.15 K | 0.000134
in water, 333.15 K | 0.000167
